Experimental data: ChEMBL document CHEMBL6109096, “Synthesis, anti-allergic rhinitis evaluation and mechanism investigation of novel 1,2,4-triazole-enamides as CB1 R antagonist” (Eur J Med Chem, 2025)
Calls of active or inactive are those of the source. The rule behind the calls is not given here.

Tests used:
Mus musculus [1] = experiment: Anti-inflammatory activity in ovalbumin-induced allergic rhinitis male Balb/c mouse model assessed as reduction in sneezing at 5 mg/kg, po administered via gavage for 7 days; assay type: functional, organism-based; conditions: time 7.0 day
Mus musculus [2] = experiment: Anti-inflammatory activity in ovalbumin-induced allergic rhinitis male Balb/c mouse model assessed as reduction in nose scratching at 5 mg/kg, po administered via gavage for 7 days; assay type: functional, organism-based; conditions: time 7.0 day
Mus musculus [3] = experiment: Anti-inflammatory activity in ovalbumin-induced allergic rhinitis male Balb/c mouse model assessed as reduction in IgE expression at 5 mg/kg, po administered via gavage for 7 days (reference value: 0.268 +/- 0.045); assay type: functional; conditions: time 7 day
Mus musculus [4] = experiment: Anti-inflammatory activity in ovalbumin-induced allergic rhinitis male Balb/c mouse model assessed as reduction in serum histamine expression at 5 mg/kg, po administered via gavage for 7 days by ELISA; assay type: functional, organism-based; conditions: time 7.0 day
Mus musculus [5] = experiment: Anti-inflammatory activity in ovalbumin-induced allergic rhinitis male Balb/c mouse model assessed as reduction in IL-4 expression in nasal lavage fluid at 5 mg/kg, po administered via gavage for 7 days by ELISA; assay type: functional, organism-based; conditions: time 7.0 day
Mus musculus [6] = experiment: Anti-inflammatory activity in ovalbumin-induced allergic rhinitis male Balb/c mouse assessed as reduction in number of cells on nasal lavage fluid at 5 mg/kg, po administered via gavage for 7 days by giemsa staining based analysis; assay type: functional, organism-based; conditions: time 7.0 day
Mus musculus [7] = experiment: Anti-inflammatory activity in ovalbumin-induced allergic rhinitis male Balb/c mouse assessed as reduction in number of mast cells on nasal lavage fluid at 5 mg/kg, po administered via gavage for 7 days by giemsa staining based analysis; assay type: functional, organism-based; conditions: time 7.0 day
Mus musculus [8] = experiment: Anti-inflammatory activity in ovalbumin-induced allergic rhinitis male Balb/c mouse assessed as reduction in number of eosinophils on nasal lavage fluid at 5 mg/kg, po administered via gavage for 7 days by giemsa staining based analysis; assay type: functional, organism-based; conditions: time 7.0 day
Mus musculus [9] = experiment: Anti-inflammatory activity in ovalbumin-induced allergic rhinitis male Balb/c mouse assessed as reduction in inflammation of nasal mucosal tissue at 5 mg/kg, po administered via gavage for 7 days by H and E staining based analysis; assay type: functional, organism-based; conditions: time 7.0 day
Mus musculus [10] = experiment: Anti-inflammatory activity in ovalbumin-induced allergic rhinitis male Balb/c mouse assessed as reduction in number of goblet cells in nasal mucosal tissues at 5 mg/kg, po administered via gavage for 7 days by PAS staining based analysis; assay type: functional, organism-based; conditions: time 7.0 day
RAW264.7 [11] = experiment: Downregulation of P-P65 protein expression in LPS-induced mouse RAW264.7 cells by Western blotting analysis; assay type: functional, cell-based
RAW264.7 [12] = experiment: Downregulation of P-IKBalpha protein expression in LPS-induced mouse RAW264.7 cells by Western blotting analysis; assay type: functional, cell-based
RAW264.7 [13] = experiment: Downregulation of p-P38 protein expression in LPS-induced mouse RAW264.7 cells by Western blotting analysis; assay type: functional, cell-based
RAW264.7 [14] = experiment: Downregulation of p-JNK protein expression in LPS-induced mouse RAW264.7 cells by Western blotting analysis; assay type: functional, cell-based
RAW264.7 [15] = experiment: Downregulation of p-ERK protein expression in LPS-induced mouse RAW264.7 cells by Western blotting analysis; assay type: functional, cell-based
RAW264.7 [16] = experiment: Downregulation of p-P38 expression in mouse RAW264.7 cells by immunofluorescence staining based analysis; assay type: functional, cell-based
RAW264.7 [17] = experiment: Downregulation of p-P38 intranuclear expression in mouse RAW264.7 cells by immunofluorescence staining based analysis; assay type: functional, cell-based
Mus musculus [18] = experiment: Anti-inflammatory activity in ovalbumin-induced allergic rhinitis male Balb/c mouse model assessed as decrease in p-p38 intranuclear expression in nasal mucosal at 5 mg/kg, po administered via gavage for 7 days by immunofluorescence staining based analysis; assay type: functional, organism-based; conditions: time 7.0 day
RAW264.7 [19] = experiment: Downregulation of CB1 R expression in LPS-induced mouse RAW264.7 cells by immunofluorescence staining based analysis; assay type: functional, cell-based
RAW264.7 [20] = experiment: Cytotoxicity against mouse RAW264.7 cells assessed as reduction in cell viability at 10 uM incubated for 24 hrs by CCK-8 assay; assay type: toxicity, cell-based; conditions: raw264.7, 24 h

Row | SMILES | Activity (Mus musculus [1]) | Activity (Mus musculus [2]) | Activity (Mus musculus [3]) | Activity (Mus musculus [4]) | Activity (Mus musculus [5]) | Activity (Mus musculus [6]) | Activity (Mus musculus [7]) | Activity (Mus musculus [8]) | Activity (Mus musculus [9]) | Activity (Mus musculus [10]) | Activity (RAW264.7 [11]) | Activity (RAW264.7 [12]) | Activity (RAW264.7 [13]) | Activity (RAW264.7 [14]) | Activity (RAW264.7 [15]) | Activity (RAW264.7 [16]) | Activity (RAW264.7 [17]) | Activity (Mus musculus [18]) | Activity (RAW264.7 [19]) | Activity (RAW264.7 [20])
1 | C[C@@H]1C[C@H]2[C@@H]3CCC4=CC(=O)C=C[C@]4(C)[C@@]3(F)[C@@H](O)C[C@]2(C)[C@@]1(O)C(=O)CO [DEXAMETHASONE] | Active | Active | 0.126 | Active | Active | Active | Active | Active | Active | Active | Active | Active | Active | Active | Active | Active | Active | Active | Active | –
2 | CN(/C=C\c1ccccc1)C(=O)c1nc(-c2ccccc2)n(-c2ccccc2)n1 | – | – | – | – | – | – | – | – | – | – | – | – | – | – | – | – | – | – | – | Non-toxic
3 | CN(/C=C\c1ccccc1)C(=O)c1nc(-c2ccc(F)cc2)n(-c2ccccc2)n1 | – | – | – | – | – | – | – | – | – | – | – | – | – | – | – | – | – | – | – | Non-toxic
